What was measured:
human skeletal myotubes = assay: Triglyceride accumulation in oleate-loaded human skeletal myotubes; assay type: cell-based; settings: Myotube, 100 μM oleate 24 hours, read-out: EC50, inhibition of TAG accumulation
Protocol: Human skeletal myotubes were differentiated for 8 days. On day 7, 100 μM of oleic acid complexed to fatty acid-free BSA was added to the cells with the indicated concentration of test compound for 24 hours. Following incubation with oleate and compound, cells were formaldehyde fixed and stained with AdipoRed™ (Lonza). Triglyceride accumulation was measured using signal intensity at excitation 540/emission 590 nm (Bio-Tek Instruments, Inc.). Dose response curves were generated in Prism 6 (GraphPad Software). EC50 values were calculated using non-linear regression analysis. For biochemical measurement of triglyceride, human skeletal myotubes were incubated with oleate-BSA and test compound as described above. After 24 hour incubation, cells were collected with a lysis buffer containing 0.1% IGEPAL CA-630 (Sigma-Aldrich) in PBS. The harvested cells were sonicated for 5 seconds and then centrifuged at 10,000×g for 10 minutes at 4° C. The supernatant was removed and stored on ice. TAG levels were quantified using Infinity™ Triglycerides Liquid Stable Reagent (Thermo Scientific), following the manufacturer's instructions for colorimetric assay.
Student's t-test, Mann Whitney test, one-way ANOVA with Bonferroni post hoc test, or two-way ANOVA with Tukey post hoc test was performed to determine statistical significance as indicated. […]

AMPK = assay: Western blot of AMPK activation; assay type: cell-based, human; settings: 24 hours
Protocol: (§1) FIGS. 3D and G show SBI-477-mediated increase in glucose uptake in oleate-loaded skeletal myotubes (FIG. 3D) SBI-477 increases glucose uptake in oleate-loaded human skeletal myotubes. Basal and insulin-stimulated [3H]2-DG uptake was measured in human skeletal myotubes following treatment with SBI-477 for 24 hours in the presence of 100 μM oleate or BSA as a control. *p<0.05 vs. vehicle, †p<0.05 vs. vehicle/insulin by one-way ANOVA with Bonferroni post hoc test. FIG. 3G—Western blot analysis (left) of human myotubes treated with SBI-477 for 24 hours was performed to determine activation of S6K and AMPK using the indicated phospho-specific antibodies. Insulin treatment (100 nM) for 30 minutes was used as positive control. Quantitation (right) of the Western blot data is shown (n=4-5). *p<0.05 vs. Vehicle by one-way ANOVA with Bonferroni post hoc test. The data represent mean±SD.
(§2) Cells were lysed in the RIPA buffer containing 1% NP-40, 5 mM Na4P2O7, 1 mM EDTA, 20 mM NaF, 2 mM Na3VO4, 1× cOmplete™ protease inhibitor (Roche) and 1 mM phenylmethylsulfonyl fluoride. Whole cell lysates were subjected to SDS-PAGE and transferred to a nitrocellulose membrane. The blots were hybridized with specific antibodies and developed with enhanced chemiluminescence kit (Pierce). […] Protein quantification was performed using FluorChemQ (Alpha Innotech) and normalized to […]-actin or total protein where indicated.

rat H9c2 myocytes = assay: Inhibition of TAG accumulation in rat H9c2 myocytes; assay type: cell-based; settings: data not shown
[1] = system: fatty acid transporter, CD36; assay: CD36 gene expression; assay type: cell-based; settings: data not shown
Protocol: Total RNA was isolated using RNeasy Mini Kit (Qiagen) according to the manufacturer's instructions. cDNA was synthesized using the Affinity Script cDNA Synthesis Kit (Stratagene) with 0.5 μg of total RNA. PCR reactions were performed in triplicate […] Roche LightCycler® 480 Instrument II) with specific primers for each gene.

S6K = assay: Western blot of pS6K (T389); assay type: cell-based, human; settings: 24 hours
Protocol: as §1, §2

human TXNIP promoter = assay: TXNIP promoter luciferase reporter assay in H9c2 myocytes; assay type: cell-based, rat; settings: 24 hours
Protocol: Transient transfections were performed using Attractene (Qiagen) according to the manufacturer's protocols. A full length (1.5 kb) and two serial deletion (1.0 kb and 0.5 kb) reporters of the human TXNIP promoter were generously provided by Dr. Fumihiko Urano (Washington University School of Medicine). Mutation of the carbohydrate-responsive elements (ChoREs) of the reporters was generated by QuikChange II Site-Directed Mutagenesis kit (Agilent). H9c2 myoblast cells (ATCC) were cotransfected with 700 ng of the reporter and 25 ng of CMV promoter driven Renilla luciferase as a control for transfection efficiency. Eighteen hours after transfection, the cells were cultured in DMEM supplemented with 1% fetal bovine serum to induce differentiation for 4 days. SBI-477 was added during the last 24 hours at the indicated concentration. After compound incubation, luciferase activity was measured using the Dual-Glo luciferase assay system (Promega) according to the manufacturer's protocols.

TXNIP = TXNIP protein levels by western blot; assay type: cell-based; settings: human myotubes
Protocol: FIGS. 4A-C show downregulation of TXNIP and ARRDC4 expression by SBI-477. (FIG. 4A) TXNIP and ARRDC4 mRNA levels as determined by quantitative RT-PCR in human myotubes treated with SBI-477 (10 μM) or DGAT1 inhibitor (DGATi, […]) for 24 hours in the absence or presence of 100 μM oleate (n=4). Expression is shown relative to vehicle/BSA treatment. (FIG. 4B) TXNIP gene expression following exposure to a dose range of SBI-477 for 24 hours (n=4). (FIG. 4C) Left, Effect of SBI-477 on TXNIP protein levels as determined by western blot analysis by SBI-477. Right, Quantitation of the TXNIP western blot data is shown (n=5). *p<0.05 vs. Vehicle/BSA control, †p<0.05 vs. Vehicle/oleate by one-way ANOVA with Bonferroni post hoc test. The data are shown as mean±SD.
as §2

SCD-1 = SCD-1 (Homo sapiens, UniProt O00767); assay: Direct inhibition of SCD-1 activity; assay type: biochemical; settings: data not shown
SCD-1, sequence (O00767 whole entry, species assumed): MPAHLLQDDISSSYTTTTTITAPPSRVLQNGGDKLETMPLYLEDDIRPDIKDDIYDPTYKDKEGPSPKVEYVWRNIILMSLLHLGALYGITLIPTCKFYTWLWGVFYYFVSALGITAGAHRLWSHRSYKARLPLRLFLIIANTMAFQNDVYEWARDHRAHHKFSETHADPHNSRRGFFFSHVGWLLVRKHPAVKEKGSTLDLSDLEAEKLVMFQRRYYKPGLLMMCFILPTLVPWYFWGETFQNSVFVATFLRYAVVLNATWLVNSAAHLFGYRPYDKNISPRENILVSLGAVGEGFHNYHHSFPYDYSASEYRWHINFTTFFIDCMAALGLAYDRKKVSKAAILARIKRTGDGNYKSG

With COc1ccc(-c2csc(NC(=O)c3ccc(OCC(=O)N4CCOCC4)c(OC)c3)n2)cc1 [Cpd. 7, 3-methoxy-N-(4-(4-methoxyphenyl)thiazol-2-yl)-4-(2-morpholino-2-oxoethoxy)benzamide] as the compound, how does the EC50 (human skeletal myotubes) read?
Its EC50 is ~1 µM.

What about the AMPK activation (AMPK) of the same compound?
Its AMPK activation is “activation of AMPK”.

What about the EC50 (rat H9c2 myocytes) of the same compound?
Its EC50 is ~0.1 µM.

What about the “Gene expression of CD36” value [1] of the same compound?
Its value is “no effect”.

And the “Levels of pS6K (T389)” value (S6K)?
The value was “reduced”.

And the “TXNIP promoter activity (luciferase)” value (human TXNIP promoter)?
Its value is “decreased promoter activity in a dose dependent manner”.

What about the TXNIP protein levels (TXNIP) of the same compound?
Its TXNIP protein levels is “reduced by SBI-477 in dose-dependent manner”.

What about the “Direct inhibition of SCD-1 activity” value (SCD-1) of the same compound?
The value was “not found that SBI-477 directly inhibits”.

From patent publication US11028061B2, “Modulators of myocyte lipid accumulation and insulin resistance and methods of use thereof” (Sanford Burnham Prebys Medical Discovery Institute, priority 2015, dated 2021)
